The target in experiment [1] is T1, cloned recombinant human HDAC-1 (Homo sapiens, UniProt Q13547).
T1 construct: made in house; host or cells: Baculovirus insect cell expression system
Description: Human HDAC-1 enzyme inhibition, Assay 1 ([3H]-acetylated histone substrate, scintillation counting). It is filed as biochemical. Conditions: read-out: Human HDAC-1 IC50. An outline of the steps: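 Recombinant human HDAC-1 from baculovirus-infected insect cells, preincubated with compound 30 min at 4° C. before reaction. Released [3H]-acetic acid extracted with ethyl acetate and counted by scintillation. IC50 taken from dose-response curves as concentration giving half-maximal inhibition.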

Experiment [2] has as its system acetylated histone H-4 in T24 human bladder cancer cells. Description: Histone H4 acetylation in whole cells by immunoblots. Conditions: 16 h. The class given is cell-based. How it is done:
T24 human bladder cancer cells growing in culture were incubated with HDAC inhibitors for 16 h. […] of total histone protein was loaded onto SDS/PAGE and transferred to nitrocellulose membranes. Membranes were probed with polyclonal antibodies specific for acetylated histone H-4 (Upstate Biotech Inc.), followed by horse radish peroxidase conjugated secondary antibodies (Sigma). Enhanced Chemiluminescence (ECL) (Amersham) detection was performed using Kodak films (Eastman Kodak). Acetylated H-4 signal was quantified by densitometry.
In general terms: Immunoblotting shows a protein as a band on a membrane.

Experiment [3] deals with HCT116 cells. Description: MTT assay. The class given is cell-based. Conditions: Homo sapiens, HCT116 cells, 72 hours. An outline of the steps: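 Cells plated one day before dosing, then exposed to compound 72 h at 37 °C, 5% CO2. MTT at 0.5 mg/ml final for 4 h, solubilized in DMF/SDS buffer pH 4.7; OD converted to cell number from a standard growth curve.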
On the technique in general: Tetrazolium dyes change colour on reduction, which living cells bring about.

Setting [4] is: T-24, Table 5a, read-out: H4Ac (T24) EC50.
[5] abbreviates: T-24, Table 5F, read-out: H4 Ac (T24) EC50.
Setting [6] is: T-24, Table 5c, read-out: H4Ac (T24) EC50.
The mark [7] stands for this setting: T-24, Table 5E, read-out: H4 Ac (T24) EC50.
The mark [8] stands for this setting: T-24, Table 5d, read-out: H4Ac(T24) EC50.

The source of these data is patent US7868204B2, “Inhibitors of histone deacetylase” (MethylGene Inc., priority 2001, dated 2011).

pEC50, pIC50: −log10 of the molar value. Read-outs that look alike come from different tables or passages of the source.

T1 sequence (Q13547 whole entry): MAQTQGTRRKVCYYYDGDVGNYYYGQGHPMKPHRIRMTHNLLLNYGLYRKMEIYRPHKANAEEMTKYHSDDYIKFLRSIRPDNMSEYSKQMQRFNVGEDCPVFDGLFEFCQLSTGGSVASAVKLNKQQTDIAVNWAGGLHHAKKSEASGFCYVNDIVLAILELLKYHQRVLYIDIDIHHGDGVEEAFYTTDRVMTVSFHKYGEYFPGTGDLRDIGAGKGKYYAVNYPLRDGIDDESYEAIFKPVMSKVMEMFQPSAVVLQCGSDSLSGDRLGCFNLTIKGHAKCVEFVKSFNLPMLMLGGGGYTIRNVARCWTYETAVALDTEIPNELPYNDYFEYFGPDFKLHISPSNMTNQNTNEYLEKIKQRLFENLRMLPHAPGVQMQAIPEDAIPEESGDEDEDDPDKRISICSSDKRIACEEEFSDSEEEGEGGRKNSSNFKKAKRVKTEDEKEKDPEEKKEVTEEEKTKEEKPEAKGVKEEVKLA

On to `Nc1nc(CC(=O)N2CCN(Cc3ccc4c(c3)OCO4)CC2)nc(NCc2ccc(C(=O)Nc3ccccc3N)cc2)n1` [18b], for which the pIC50 (as a rule, the negative decadic logarithm of the IC50, by convention in mol/L) was 6.22 in experiment [1] (Table 5a) and 5.30 in experiment [3] (HCT-116, 72 h, Table 5a). The pEC50 – broadly, the negative decadic logarithm of the EC50, by convention in mol/L – in experiment [2] (setting [4]) is 5.00.

For `COc1ccc(NCc2ccc(C(=O)Nc3cscc3N)cc2)cc1OC` [424c, N-(4-Aminothiophen-3-yl)-4-[(3,4-dimethoxyphenylamino)-methyl]-benzamide], the pIC50 in experiment [1] (Table 5F) is 5.52; in experiment [3] (HCT-116, 72 h, Table 5F) it was 6.10. The pEC50 in experiment [2] (setting [5]) is 5.52.

In the case of `Nc1nc(NCc2ccc(C(=O)Nc3ccccc3N)cc2)nc(NC2Cc3ccccc3C2)n1` [Cpd 8, 4-{[4-Amino-6-(2-indanyl-amino)-[1,3,5]-triazin-2-yl-amino]-methyl}-N-(2-amino-phenyl)-benzamide], the pIC50 in experiment [1] (Table 5a) was 6.40; in experiment [3] (HCT-116, 72 h, Table 5a) it was 6.30. Further, the pEC50 in experiment [2] (setting [4]) is 6.00.

`Nc1nc(NCc2ccc(C(=O)Nc3ccccc3N)cc2)nc(NC2CCc3ccccc32)n1` (stereo not drawn) [Cpd 10, 4-{[4-amino-6-(1-indanyl-amino)-[1,3,5]-triazin-2-ylamino]-methyl}-N-(2-amino-phenyl)-benzamide]: the pIC50 is 5.70 in experiment [1] (Table 5a) and 6.22 in experiment [3] (HCT-116, 72 h, Table 5a). In experiment [2] (setting [4]), the pEC50 was 6.00.

Consider `Nc1nc(NCc2ccc(C(=O)Nc3ccccc3N)cc2)nc(N2CCN(c3ccccc3)CC2)n1` [Cpd 11], for which the pIC50 in experiment [1] (Table 5a) is 5.70; in experiment [3] (HCT-116, 72 h, Table 5a), 6.22. The pEC50 in experiment [2] (setting [4]) is 5.70.

Consider `Nc1nc(NCc2ccc(C(=O)Nc3ccccc3N)cc2)nc(NCc2ccccn2)n1` [Cpd 12], for which the negative logarithm of the IC50 (pIC50) in experiment [1] (Table 5a) was 5.70; in experiment [3] (HCT-116, 72 h, Table 5a) it was 5.70. The pEC50 in experiment [2] (setting [4]) is 5.30.

`Nc1nc(NCc2ccc(C(=O)Nc3ccccc3N)cc2)nc(NC2c3ccccc3-c3ccccc32)n1` [Cpd 14, 4-{[4-Amino-6-(9H-fluoren-9-ylamino)-[1,3,5]triazin-2-ylamino]-methyl)-N-(2-amino-phenyl)-benzamide]: the pIC50 is 6.52 in experiment [1] (Table 5a) and 6.00 in experiment [3] (HCT-116, 72 h, Table 5a). The pEC50 in experiment [2] (setting [4]) was 5.30.

For `CC1(C)C2CC[C@@](C)(C2)[C@H]1Nc1nc(N)nc(NCc2ccc(C(=O)Nc3ccccc3N)cc2)n1` [Cpd 17], the pIC50 in experiment [1] (Table 5a) is 6.05; in experiment [3] (HCT-116, 72 h, Table 5a) it was 6.00. Besides, the pEC50 in experiment [2] (setting [4]) was 5.70.

With `C=CCNc1nc(NCc2ccc(C(=O)Nc3ccccc3N)cc2)nc(NC2Cc3ccccc3C2)n1` [Cpd 18], the pIC50 in experiment [1] (Table 5a) is 6.10; in experiment [3] (HCT-116, 72 h, Table 5a), 6.22. In addition, the pEC50 in experiment [2] (setting [4]) was 5.52.

For the molecule `Nc1ccccc1NC(=O)c1ccc(CNc2nc(NC3CC3)nc(NC3Cc4ccccc4C3)n2)cc1` [Cpd 19], the pIC50 in experiment [1] (Table 5a) was 6.05; in experiment [3] (HCT-116, 72 h, Table 5a), 6.00. Also, the pEC50 in experiment [2] (setting [4]) is 6.00.

With `Nc1nc(NCCc2ccccc2)nc(NCc2ccc(C(=O)Nc3ccccc3N)cc2)n1` [Cpd 20, 4-[(4-Amino-6-phenethylamino-[1,3,5]triazin-2-ylamino)-methyl]-N-(2-amino-phenyl)-benzamide], the pIC50 was 6.30 in experiment [1] (Table 5a) and 6.52 in experiment [3] (HCT-116, 72 h, Table 5a). In experiment [2] (setting [4]), the pEC50 is 6.00.

For the molecule `COc1cc(N(C)Cc2ccc(/C=C/C(=O)Nc3ccccc3N)cc2)cc(OC)c1OC` [Cpd 108], the pEC50 in experiment [2] (setting [6]) is 5.30. For the same molecule, in experiment [3] (HCT-116, 72 h, Table 5c), the pIC50 is 5.30.

Turning to `Nc1ccccc1NC(=O)/C=C/c1cnc(NCc2ccc([N+](=O)[O-])cc2)nc1` [Cpd 113, N-(2-amino-phenyl)-3-[2-(4-nitro-benzylamino)-pyrimidin-5-yl]-acrylamide], in experiment [2] (setting [6]), the pEC50 is 5.30. Also, in experiment [3] (HCT-116, 72 h, Table 5c), the pIC50 was 6.52.

For `COc1cc(CNc2ccc(/C=C/C(=O)Nc3ccccc3N)cn2)cc(OC)c1OC` [Cpd 116, N-(2-aminophenyl)-3-[6-(3,4,5-trimethoxy-benzylamino)-pyridin-3-yl]-acrylamide], the pEC50 in experiment [2] (setting [6]) is 5.30. Besides, the pIC50 in experiment [3] (HCT-116, 72 h, Table 5c) was 5.70.

As for `COc1cc(NCc2ccc(C(=O)Nc3ccccc3N)cc2)cc(OC)c1OC` [Cpd 164], the pEC50 in experiment [2] (setting [7]) was 5.52. In experiment [3] (HCT-116, 72 h, Table 5E), the pIC50 is 5.70.

In the case of `COc1cc(CNc2ccc(C(=O)Nc3ccccc3N)cn2)cc(OC)c1OC` [Cpd 176], in experiment [2] (setting [7]), the pEC50 was 5.52. In experiment [3] (HCT-116, 72 h, Table 5E), this molecule gave a pIC50 of 6.00.

On to `Nc1nc(Nc2ccc(C(=O)Nc3ccccc3N)cc2)nc(NC2Cc3ccccc3C2)n1` [Cpd 204], for which the pIC50 in experiment [1] (Table 5b) was 5.40. Besides, in experiment [2] (T-24, Table 5b, read-out: H4Ac (T24) EC50), the pEC50 is 5.30.

In the case of `COc1cc(-c2ccc3sc(NCc4ccc(C(=O)Nc5ccccc5N)cc4)nc3c2)cc(OC)c1OC` [Cpd 231], in experiment [1] (Table 5F), the pIC50 was 5.40. In experiment [2] (setting [5]), the pEC50 was 5.52.

Turning to `Nc1ccccc1NC(=O)c1ccc(CNc2nc3cc(Cl)ccc3o2)cc1` [Cpd 320, N-(2-Amino-phenyl)-4-[(5-chloro-benzooxazol-2-ylamino)-methyl]-benzamide], in experiment [1] (Table 5F), the pIC50 is 5.70. Also, the pEC50 in experiment [2] (setting [5]) was 6.00.

`Nc1ccccc1NC(=O)c1ccc(CNc2nc(Cl)cc(N3CCOCC3)n2)cc1` [Cpd 411, N-(2-Amino-phenyl)-4-[(4-chloro-6-morpholin-4-yl-pyrimidin-2-ylamino)-methyl]-benzamide]: the pIC50 in experiment [1] (Table 5F) is 5.70. Besides, the pEC50 in experiment [2] (setting [5]) is 6.00.

With `COc1cc(CNc2ccc(C(=O)Nc3ccccc3N)cc2)cc(OC)c1OC` [Cpd 412, N-(2-Amino-phenyl)-4-(3,4,5trimethoxybenzylamino)-benzamide], the pEC50 in experiment [2] (setting [5]) is 5.52. In experiment [3] (HCT-116, 72 h, Table 5F), this molecule had a negative logarithm of the IC50 (pIC50) of 5.70.

In the case of `COc1ccc(NCc2ccc(C(=O)Nc3ccccc3N)cc2)cc1OC` [Cpd 424b], the pEC50 in experiment [2] (setting [5]) was 6.00. Further, in experiment [3] (HCT-116, 72 h, Table 5F), the pIC50 is 6.40.

With `COc1ccc(NCc2ccc(C(=O)Nc3ccccc3N)cc2)cc1` [Cpd 427, N-(2-Amino-phenyl)-4-[(4-methoxy-phenylamino)-methyl]-benzamide], the pEC50 in experiment [2] (setting [5]) was 6.00. The molecule further had a pIC50 in experiment [3] (HCT-116, 72 h, Table 5F) of 5.70.

As for `COc1ccc(CNc2ccc(C(=O)Nc3ccccc3N)cc2)cc1OC` [Cpd 434, N-(2-Amino-phenyl)-4-(3,4-dimethoxy-benzylamino)-benzamide], the pEC50 in experiment [2] (setting [5]) is 5.70. Moreover, in experiment [3] (HCT-116, 72 h, Table 5F), the pIC50 was 6.22.

For the molecule `COc1ccc(-c2ccnc(NCc3ccc(C(=O)Nc4ccccc4N)cc3)n2)cc1OC` [Cpd 440, N-(2-Amino-phenyl)-4-{[4-(3,4-dimethoxy-phenyl)-pyrimidin-2-ylamino]-methyl}-benzamide], in experiment [2] (setting [5]), the pEC50 is 5.70. The molecule further gave a pIC50 in experiment [3] (HCT-116, 72 h, Table 5F) of 7.00.

Take `COc1cc(NCc2ccc(/C=C/C(=O)Nc3ccccc3N)cn2)cc(OC)c1OC` [Cpd 512, N-(2-Amino-phenyl)-3-{6-[(3,4,5-trimethoxy-phenylamino)-methyl]-pyridin-3-yl}-acrylamide]: the pEC50 in experiment [2] (setting [8]) was 5.30. The pIC50 in experiment [3] (HCT-116, Table 5d) is 5.52.

As for `COc1ccc(NCc2ccc(/C=C/C(=O)Nc3ccccc3N)cc2)cc1OC` [Cpd 542, N-(2-Amino-phenyl)-3-{4-[(3,4-dimethoxy-phenylamino)-methyl]-phenyl}-acrylamide], the pEC50 in experiment [2] (setting [8]) was 5.40. This molecule showed a negative logarithm of the IC50 (pIC50) in experiment [3] (HCT-116, Table 5d) of 5.30.

With `COc1ccc(NCc2ccc(C(=O)Nc3ccccc3O)cc2)cc1OC` [Cpd 572, N-(2-hydroxy-phenyl)-4-[(3,4-Dimethoxy-phenylamino)-methyl]-benzamide], the pEC50 in experiment [2] (setting [5]) is 5.30. In experiment [3] (HCT-116, 72 h, Table 5F), the pIC50 is 5.30.

For the molecule `COc1ccc(-c2ccnc(NCc3ccc(C(=O)Nc4ccccc4N)cc3)n2)cn1` [Cpd 578, N-(2-Amino-phenyl)-4-{[4-(6-methoxy-pyridin-3-yl)-pyrimidin-2-ylamino]-methyl}-benzamide], in experiment [2] (setting [5]), the pEC50 is 6.00. Besides, the pIC50 in experiment [3] (HCT-116, 72 h, Table 5F) is 7.00.
